# Key:
# B16F10 melanoma cells [1] = test: Melanoma cell spheroid volume, 3D cell culture; type: cell-based; settings: SD208 1 μmol/L, TGF-β 5 ng/m, eight days, 3D culture
# Method: For 3D cell culture, 1,000 B16F10 melanoma cells per 100 μl of DMEM were placed in a PCR tube and collected at the bottom by centrifugation. After culturing the cells in the PCR tubes for three days, they were transferred to a 96-well plate and treated with DMEM containing the immunoadjuvant SD208 (1 μmol/L) and the tumor marker TGF-β (5 ng/m). The DMEM was exchanged with fresh DMEM every three days, and the changes in the size of melanoma cell spheroids were measured for eight days using a microscope.
# PD-L1 = test: Inhibition of PD-L1 protein expression in melanoma cells (confocal, flow cytometry); type: cell-based; settings: SD208 1 μmol/L, TGF-β 5 ng/m, 24 hours, B16F10 melanoma cells
# Method: 5×10^4 B16F10 melanoma cells per well of a cell culture plate were cultured in a 12-well plate using DMEM, and then treated with the immunoadjuvant SD208 (1 μmol/L) and the tumor marker TGF-β (5 ng/m) for 24 hours.
# Thereafter, the cells were imaged using a STELLARIS 8 STED confocal laser scanning microscope after treatment with an anti-PD-L1 Alexa 488 fluorescent antibody. In addition, the fluorescence expression level of the PD-L1 protein was confirmed through flow cytometry.
# TGF-β = test: Inhibition of TGF-β activity in melanoma cells (immunofluorescence, western blotting); type: cell-based; settings: SD208 1 μmol/L, TGF-β 5 ng/m, 24 hours, B16F10 melanoma cells
# Method: 5×10^4 B16F10 melanoma cells per well of a cell culture plate were cultured in a 12-well plate using Dulbecco's Modified Eagle Medium (DMEM), and then treated with the immunoadjuvant SD208 (1 μmol/L) and the tumor marker TGF-β (5 ng/m) for 24 hours. Thereafter, cells were treated with an anti-α-tubulin Alexa 488 fluorescent antibody and 4′,6-diamidino-2-phenylindole (DAPI), and then imaged using the STELLARIS 8 STED confocal laser scanning microscope.
# In addition, changes in the expression levels of proteins activated by TGF-β were confirmed by western blotting using anti-Psmad3, anti-smad3, anti-N-cadherin, and anti-E-cadherin antibodies.
# B16F10 melanoma cells [2] = test: Wound healing, 2D melanoma cell culture; type: cell-based; settings: SD208 1 μmol/L, TGF-β 5 ng/m, 24 hours, 2D culture
# Method: For 2D cell culture, 8×10^4 B16F10 melanoma cells were cultured in a 12-well plate using DMEM until the wells were full. Thereafter, the cells filling the wells were scratched in a cross shape to create a wound, and treated with the immunoadjuvant SD208 (1 μmol/L) and the tumor marker TGF-β (5 ng/m) for 24 hours, and the wound healing rate over time was imaged using a microscope.
# [3] = Confocal imaging of fluorescent substances in composite solvent microstructure; type: physicochemical; settings: PBS:DMSO 9:1, 20% (w/v) hyaluronic acid
# Method: The fluorescein isothiocyanate (FITC) fluorescent substance which is soluble only in a water-soluble solvent, and the Cy5.5 fluorescent substance, which is soluble only in a fat-soluble solvent, were added to a composite solvent containing a mixture of a water-soluble solvent (PBS) and a fat-soluble solvent (DMSO) in a ratio of 9:1 (10% (v/v) fat-soluble) and 20% (w/v) hyaluronic acid was further dissolved, and microstructures were fabricated using the method of Manufacturing Example 1. Thereafter, the composite solvent fluorescence microstructures were imaged using the STELLARIS 8 STED confocal laser scanning microscope.
Compound,melanoma cell spheroid volume increase effect caused by TGF-β (B16F10 melanoma cells [1]),fluorescence value of PD-L1 (PD-L1 expression) (PD-L1),effect of TGF-β (TGF-β),"expression of proteins activated by TGF-β (TGF-β; Psmad3, smad3, N-cadherin, E-cadherin)",wound healing effect by TGF-β (B16F10 melanoma cells [2]),distribution within the microstructure [3]
Fc1ccc(Cl)cc1-c1nc(Nc2ccncc2)c2nccnc2n1 [SD208],inhibited,decreased,inhibited the effect of TGF-β,suppressing the expression of proteins activated by TGF-β,inhibited,
Cy5.5,,,,,,evenly distributed
